# Laboratory results: patent US7208154B2, “Methods and compositions for the treatment of MHC-associated conditions” (Regents of the University of Michigan, priority 2002, dated 2007)
# No end group written: not given here.
# Experiments:
# calreticulin [1] = molecular target: T1, calreticulin (Homo sapiens, UniProt P27797); assay: Blocking of shared epitope peptide-triggered signaling (cAMP-inhibitory effect, genoprotection) in M1 cells; type: cell-based; design: endogenous in cells; host or cells: M1 human fibroblastoid cells; conditions: M1 cells pre-incubated or transfected
# T1 sequence (P27797 18-417): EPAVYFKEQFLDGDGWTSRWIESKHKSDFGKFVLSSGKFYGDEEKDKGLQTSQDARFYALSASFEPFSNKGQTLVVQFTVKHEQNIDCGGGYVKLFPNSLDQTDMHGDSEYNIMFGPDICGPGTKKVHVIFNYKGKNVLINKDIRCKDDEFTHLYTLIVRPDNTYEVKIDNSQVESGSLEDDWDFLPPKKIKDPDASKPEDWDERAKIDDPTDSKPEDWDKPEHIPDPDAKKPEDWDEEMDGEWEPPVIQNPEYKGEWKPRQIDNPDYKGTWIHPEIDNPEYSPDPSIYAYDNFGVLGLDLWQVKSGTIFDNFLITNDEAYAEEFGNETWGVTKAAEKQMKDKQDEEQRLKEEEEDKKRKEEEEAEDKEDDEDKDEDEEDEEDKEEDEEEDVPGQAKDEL
# Description: Finally, in order to determine whether these neuroprotective peptides transduce their signaling through calreticulin, two complementing protocols were executed: i) Inhibition of peptide-calreticulin interaction using anti-calreticulin antibodies, or ii) blocking calreticulin expression with antisense oligonucleotides (as shown in FIG. 13C and FIG. 13D).
# (§1) M1 cells were cultured in 6-well plate to 60–70% confluency. M1 cells were treated by 0.2 μM antisense oligonucleotide for 24 to 48 hr, using Lipofectin as a carrier. Calreticulin expression levels were determined by Western-blot and flow cytometry, using anti-calreticulin antibodies. Polyclonal rabbit anti-human calreticulin antibodies were obtained from ABR, Golden, CO.
# calreticulin [2] = assay: Calreticulin cell surface expression in M1 cells (Western-blot, flow cytometry); type: cell-based, human; conditions: 0.2 μM oligonucleotide, 24 to 48 hr, Lipofectin
# Description: as §1
# [3] = test system: human fibroblastoid line M1 cells; conditions: for Inhibition of cAMP-mediated (2CA-induced) DNA repair induction: M1 cells preincubated overnight with 50 μg/ml soluble peptide
# Excerpt: To further determine the signaling pathways involved in DNA repair induction, the inventors used the Trevigen CometAssay™ kit (Cat. No. 4250-50-K). The CometAssay is a single-cell gel electrophoresis method that can measure a variety of types of DNA damage, and repair of damage, in individual cells. The assay is based on the alkaline lysis of labile DNA at sites of damage. The unwound, relaxed DNA is able to migrate out of the cell during electrophoresis and can be visualized by SYBR Green staining.
# (§2) To quantify DNA damage, cells were collected and three parallel samples were processed (a negative control, a DNA damage control (H2O2) and a sample subjected to H2O2 following exposure to various modulators of the cAMP signaling pathway). Cells are then washed in PBS. The washed cells are combined with molten low-melting agarose (Trevigen Cat. No. 4250-50-02) and transferred to a CometSlide™ (Trevigen Cat. No. 4250-100-03). The slides are immersed in lysis buffer for 30 min, on ice, in the dark. The slides are then treated with alkali buffer for 20 to 60 min at room temperature in the dark. The slides are then electrophoresed in buffer for 10 min at 20 volts, then fixed in methanol and ethanol. The slides are then stained with SYBR green (Trevigen Cat. No. 4250-50-05) solution and fluorescently imaged with a Diagnostic Instruments digitized camera, mounted on a Nikon Eclipse E400 microscope. Scion Image software is used to quantitate the comet tail intensity. Each data point is derived from tail fluorescent intensity determination in 50–100 individual cells. Data is presented as % DNA repair (the percent decrement in tail fluorescence intensity in agonist or antagonist-treated cells, relative to the intensity recorded in cells treated with H2O2 only)±SEM. (R.U.s)
# (§3) To directly examine that possibility, cells were incubated overnight with synthetic peptides corresponding to the region contained within amino acids 65–79 and their ability to mount DNA repair activity in response to cAMP-elevating agents was determined. M1 cells were preincubated overnight with 50 μg/ml of synthetic peptides corresponding to the region surrounding the third allelic hypervariable region (aa 65–79) of each of the following DRβ chains: *0401 (65–79*0401) [SEQ ID NO: 5], *0402 (65–79*0402) [SEQ ID NO: 7], *0403 (65–79*0403) [SEQ ID NO: 9] or *0404(65–79*0404) [SEQ ID NO: 10]. At the end of the preincubation, cells were collected, washed and 2CA-induced DNA repair was determined as above. Table 3 (above) lists the different third allelic hypervariable region peptides used in the entire study disclosed here.
# A modified method as described previously by Auger et al. [Nature Med 2:306–310 1996] was used. Briefly, cyanogen bromide activated Speharose 4B (1.5 ml) was washed with 1 mM HCl and incubated with peptides in 0.1 M NaHCO3 and 0.5 M NaCl (pH 8) buffer overnight at 4° C. For each peptide, 5 mg was used per milliliter of Sepharose. Free Sepharose groups were blocked with 0.2 M glycine (pH 8) for 2 hours at room temperature. Columns were washed at 4° C. with the following buffers: 0.1 M NaHCO3, 0.5 M NaCl (pH 8) buffer, then 0.5 M CH3COONa (pH 4) buffer and finally PBS at pH 7.5. M1 cells were plated at a density of 0.5×10^6 cells per well (6 well plate) in 10% FBS DMEM medium until 70–80% confluence. Prior to incubation with peptides, cultures were changed to serum-free DMEM medium, then evenly overlaid with 50 μg bead conjugated peptides, and incubated for the indicated period. Soluble peptides were added overnight to M1 cells at a concentration of 50 μg/ml.
# [4] = molecular target: T2, purified recombinant calreticulin (Homo sapiens, UniProt P27797); assay: Surface plasmon resonance, peptides immobilized on CM5 chip, calreticulin in flow phase; type: binding; conditions: peptide immobilized on Biacore sensor chip CM5
# T2 sequence (P27797 18-417): T1 sequence (P27797 18-417)
# Excerpt: To determine whether 65–78*0404 [SEQ ID NO: 28]-conjugated peptides bind these proteins directly, purified recombinant products were used. […] Shared epitope-containing peptides, 65–79*0401-[SEQ ID NO: 5] and 65–79*0404-[SEQ ID NO: 10], as well as a control peptide 65–79*0402-[SEQ ID NO: 7] were immobilized on different channels in a Biacore® sensor chip CM5 and purified recombinant calreticulin was applied in the flow phase.
# mouse cells = assay: cAMP-mediated DNA repair induction in mouse cells (data not shown); type: cell-based
# Description: as §3
# calreticulin [5] = molecular target: T1, calreticulin; assay: Peptide affinity column binding of purified recombinant calreticulin; conditions: immunoblot of eluate
# [6] = test system: Total cellular protein extracts; assay: Peptide affinity chromatography of total cellular protein extracts; type: binding; conditions: total cellular protein extracts loaded
# Excerpt: Total cellular protein extracts were loaded onto columns of Sepharose beads, conjugated with either shared epitope-containing peptide 65–78*0404 [SEQ ID NO: 28] or the control peptide 65–78*0402 [SEQ ID NO: 8]. Bound proteins were eluted at low pH. […] 11 sequenced bands matched intracellular proteins, and only two sequences matched previously identified cell surface proteins: heat shock protein 60 (HSP60) and calreticulin. Both calreticulin and HSP60 are chaperones, with strong tendency to form hetero-complexes.
# [7] = molecular target: T3, human A2B adenosine receptor (Homo sapiens, UniProt P29275); assay: Comet assay DNA repair in HEK293/A2b transfectants; type: cell-based; conditions: 20 min pretreatment, various doses
# T3 construct: expressed in transfected cells; provided by Joel Linden
# T3 sequence (P29275 1-332): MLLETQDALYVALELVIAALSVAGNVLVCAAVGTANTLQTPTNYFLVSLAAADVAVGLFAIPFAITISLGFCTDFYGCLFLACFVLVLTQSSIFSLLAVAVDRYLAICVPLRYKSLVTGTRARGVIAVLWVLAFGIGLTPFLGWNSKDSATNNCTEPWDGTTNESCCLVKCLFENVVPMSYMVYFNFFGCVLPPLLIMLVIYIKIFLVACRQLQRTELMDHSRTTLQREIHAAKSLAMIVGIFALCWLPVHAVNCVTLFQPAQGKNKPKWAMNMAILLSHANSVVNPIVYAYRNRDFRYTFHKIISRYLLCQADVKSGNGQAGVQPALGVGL
# Description: as §2
# (§4) Human embryonic kidney 293 cells (HEK 293) transfected with adenosine receptors were provided by Joel Linden. […]
# [8] = molecular target: T4, human A2A adenosine receptor (Homo sapiens, UniProt P29274); assay: Comet assay DNA repair in HEK293/A2a transfectants; type: cell-based; conditions: 20 min pretreatment, various doses
# T4 construct: expressed in transfected cells; provided by Joel Linden
# Description: as §2, §4
# M1 cells = assay: cGMP level (enzyme immunoassay) in M1 cells; type: cell-based, human; conditions: M1 cells exposed to 50 μg/ml soluble peptide
# Description: cGMP was determined using an Amersham Pharmacia Biotech cGMP enzymeimmunoassay (EIA) system (Code RPN 226). The reagents (lysis reagents, standards, antibody, cGMP conjugate and wash buffer) are all prepared according to the manufacturer's instructions. Briefly, samples are acetylated with acetylation reagent (acetic anhydride in triethylamine) and then incubated with the antibody reagent and lysis buffer according to the manufacturer's instructions. The cGMP conjugate is then added and the microtiter plate is incubated according to the manufacturer's instructions. The wells are aspirated and washed, enzyme substrate is added and incubated, and the plate can be read at 630 nm or 450 nm (depending on the length of incubation and how the reaction was terminated). Controls are carried out as recommended by the manufacturer, and the results are calculated according to the manufacturer.
# D.) cGMP levels in M1 cells were determined as described above using an enzyme immunoassay kit (Pharmacia) at different time points following exposure to 50 μg/ml of soluble 65–78*0401 [SEQ ID NO: 6] or 65–78*0402 [SEQ ID NO: 8] peptides.
# [9] = test system: hybrid neuroblastoma-glioma NG108–15 cell line; assay: Neuroprotection in acutely stressed NG108–15 cells; type: cell-based
# Description: In order to assess whether shared epitope-containing peptides exert a neuroprotective effect, preliminary experiments were carried out with the hybrid neuroblastoma-glioma NG108–15 cell line. Cells (10^5/ml) were first cultured overnight at near-confluence in 24-well plates in DMEM medium supplemented with 1% fetal calf serum (FCS). Under these conditions, NG108–15 cells show a flat, multipolar morphology and neurite formation. After 20 hours, cells were stressed acutely in serum-free medium (by aspiration of the medium and replacement with serum-free DMEM) with 50 μg/ml of peptides and evaluated morphologically at different time points thereafter. […] Morphological differences between cultures treated with different peptides could be observed as early as 5–6 hrs after treatment. The photographs shown were taken at the 24 hr time point. In another experiment (FIG. 12C), NG108–15 cells were cultured at low cell density (2×10^4/ml) in 1% FCS-containing DMEM medium overnight. The next day cells were subjected to acute stress in serum-free and low glucose (RPMI1640) medium (after aspiration of the 1% FCS DMEM) in the presence of 50 μg/ml of either 65–78*0401 [SEQ ID NO: 6] or 65–78*0402 [SEQ ID NO: 8] peptides. After 72 hours, cells were fixed with 1% formaldehyde and inspected microscopically. Mean±SEM was determined by averaging cell counts in eight randomly-selected microscopic fields in 200× magnification. Neurite-positive cells were defined as cells with one or more projections extending at least twice as long as the cell diameter. […] (FIG. 12C). The calculated number of neurite-positive cells was over 6-fold higher in shared epitope-containing peptide-cultured cells. When cultured in the presence of lysophosphatidic acid or high concentrations of serum, neuronal cells undergo neurite retraction (130). […] Thus, it is concluded that shared epitope-containing peptides may exert neuroprotective effects.
# T4 sequence (P29274 whole entry): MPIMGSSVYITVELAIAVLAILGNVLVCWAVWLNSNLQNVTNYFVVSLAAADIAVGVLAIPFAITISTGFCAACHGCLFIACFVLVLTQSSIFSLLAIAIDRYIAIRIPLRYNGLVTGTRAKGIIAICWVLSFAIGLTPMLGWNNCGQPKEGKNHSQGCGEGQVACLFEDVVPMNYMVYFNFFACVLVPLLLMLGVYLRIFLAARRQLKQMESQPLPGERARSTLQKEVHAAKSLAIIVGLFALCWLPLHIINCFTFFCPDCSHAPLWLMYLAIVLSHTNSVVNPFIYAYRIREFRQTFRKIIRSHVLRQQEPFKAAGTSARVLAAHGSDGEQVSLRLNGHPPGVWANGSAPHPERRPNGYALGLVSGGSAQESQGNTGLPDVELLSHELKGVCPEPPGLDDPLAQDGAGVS
molecule,measurement,setting,value
"5′-GGATAGCAGCATGGCGGGCCG-3′ (listed as DNA, chemistry not given here) [calreticulin antisense oligonucleotides, calreticulin antisense oligonucleotide synthesized by Operon]",Block of shared epitope peptide-triggered signaling / inhibitory effect on genoprotection,calreticulin [1],blocked peptide-triggered signaling
same,Inhibition of calreticulin cell surface expression,calreticulin [2],inhibited cell surface expression
"KDLLEQRRAAVDTYC [65–79*0404, synthetic peptide corresponding to amino acids 65–79 of the β chain encoded by the HLA-DRB*0404 allele]",Inhibition of cAMP-mediated (2CA-induced) DNA repair induction,[3],inhibited cAMP-mediated DNA repair induction
same,Calreticulin binding compared to control peptide 65–79*0402,[4],markedly higher calreticulin binding
same,Inhibition of cAMP-mediated DNA repair induction,mouse cells,inhibited cAMP-mediated DNA repair induction
"KDLLEQRRAAVDTY [65–78*0404, synthetic peptide corresponding to amino acids 65–78 of the β chain encoded by the HLA-DRB*0404 allele]",Binding of recombinant human calreticulin to peptide affinity column,calreticulin [5],specifically bound
same,Protein binding: distinct bands in low pH eluates of peptide-conjugated Sepharose column,[6],~20
"Nc1nc(Cl)nc2c1ncn2[C@@H]1O[C@H](CO)[C@@H](O)[C@H]1O [2CA, 2-chloroadenosine]",DNA repair triggered,[3]; M1 cells stimulated 20 min with various concentrations before 100 μM H2O2,triggered in all cases DNA repair
same,2CA-induced DNA repair signal transduced,[7],transduced the signal
same,2CA-induced DNA repair signal transduced,[8],transduced the signal
KDLLEQKRAAVDTY-NH2 [65–78*0401],IC50,[3],~250 nM
same,cGMP levels,M1 cells,triggered increased cGMP levels
same,Inhibition of neurite retraction effect of 10% FCS,[9]; data not shown,inhibited the neurite retraction effect
same,Survival rate versus control peptide 65–78*0402,"[9]; low density, serum-free low glucose medium, 50 μg/ml, 72 hours, p<0.0005",significantly higher survival rate
same,Percentage of neurite-positive cells versus control peptide 65–78*0402,"[9]; low density, serum-free low glucose medium, 50 μg/ml, 72 hours, p<0.001",higher percentage of neurite-positive cells
same,Cell morphology after acute serum-free stress,"[9]; near-confluent NG108–15, 50 μg/ml peptide, 24 hr",greater preservation of the multipolar flat cell morphology with neurites
same,"Calculated number of neurite-positive cells, fold higher than control peptide","[9]; serum-free low glucose medium, 50 μg/ml, 72 hours",over 6 fold
"KDLLEQKRAAVDTYC [65–79*0401, synthetic peptide corresponding to amino acids 65–79 of the β chain encoded by the HLA-DRB*0401 allele]",Inhibition of cAMP-mediated (2CA-induced) DNA repair induction,[3],inhibited cAMP-mediated DNA repair induction
same,Calreticulin binding compared to control peptide 65–79*0402,[4],markedly higher calreticulin binding
same,Inhibition of cAMP-mediated DNA repair induction,mouse cells,inhibited cAMP-mediated DNA repair induction
